Active and inactive are the calls of the source. The calls are words filed in the database; no cut-off is given here.
Tests used:
[1] = Cytotoxicity against human PAXF 546L cells after 4 days by propidium iodide staining-based fluorometric analysis; format: functional, cell-based; conditions: 96 h
MCF7 = experiment: Cytotoxicity against human MCF7 cells after 4 days by propidium iodide staining-based fluorometric analysis; format: functional, cell-based; conditions: MCF7, 96 h
[2] = Cytotoxicity against human RXF 1781L cells after 4 days by propidium iodide staining-based fluorometric analysis; format: functional, cell-based; conditions: 96 h
SAOS-2 = experiment: Cytotoxicity against human Saos2 cells after 4 days by propidium iodide staining-based fluorometric analysis; format: functional, cell-based; conditions: SAOS-2, 96 h, read-out: IC50
[3] = Cytotoxicity against human PXF 698L cells after 4 days by propidium iodide staining-based fluorometric analysis; format: functional, cell-based; conditions: 96 h
[4] = Cytotoxicity against human RXF 393NL cells after 4 days by propidium iodide staining-based fluorometric analysis; format: functional, cell-based; conditions: 96 h
[5] = Cytotoxicity against human MEXF 1341L cells after 4 days by propidium iodide staining-based fluorometric analysis; format: functional, cell-based; conditions: 96 h
[6] = Cytotoxicity against human DIFI cells after 4 days by propidium iodide staining-based fluorometric analysis; format: functional, cell-based; conditions: 96 h
TE-671 = experiment: Cytotoxicity against human TE671 cells after 4 days by propidium iodide staining-based fluorometric analysis; format: functional, cell-based; conditions: TE-671, 96 h
[7] = Cytotoxicity against human LXFA 629L cells after 4 days by propidium iodide staining-based fluorometric analysis; format: functional, cell-based; conditions: 96 h
[8] = Cytotoxicity against human MAXF 401NL cells after 4 days by propidium iodide staining-based fluorometric analysis; format: functional, cell-based; conditions: 96 h
[9] = target: Tyrosine-protein kinase ABL1 (Homo sapiens) (UniProt P00519); experiment: Inhibition of ABL1 using poly(Ala, Glu, Lys, Tyr) as substrate and [gamma33P]ATP at 1 uM after 60 mins by scintillation counting
RKO = experiment: Cytotoxicity against human RKO cells after 4 days by propidium iodide staining-based fluorometric analysis; format: functional, cell-based; conditions: 96 h
[10] = Cytotoxicity against human PXF 1118L cells after 4 days by propidium iodide staining-based fluorometric analysis; format: functional, cell-based; conditions: 96 h
[11] = target: Vascular endothelial growth factor receptor 2 (Homo sapiens) (UniProt P35968); experiment: Inhibition of VEGFR2 using poly(Glu,Tyr)4:1 as substrate and [gamma33P]ATP at 1 uM after 60 mins by scintillation counting
[12] = Cytotoxicity against human BXF 1218L cells after 4 days by propidium iodide staining-based fluorometric analysis; format: functional, cell-based; conditions: 96 h
MKN-45 = experiment: Cytotoxicity against human MKN45 cells after 4 days by propidium iodide staining-based fluorometric analysis; format: functional, cell-based; conditions: MKN-45, 96 h
CWR22R = experiment: Cytotoxicity against human 22Rv1 cells after 4 days by propidium iodide staining-based fluorometric analysis; format: functional, cell-based; conditions: 22Rv1, 96 h
[13] = Cytotoxicity against human UXF 1138L cells after 4 days by propidium iodide staining-based fluorometric analysis; format: functional, cell-based; conditions: 96 h
[14] = target: Receptor tyrosine-protein kinase erbB-2 (Homo sapiens) (UniProt P04626); experiment: Inhibition of Erbb2 using poly(Glu,Tyr)4:1 as substrate and [gamma33P]ATP at 1 uM after 60 mins by scintillation counting
DU-145 = experiment: Cytotoxicity against human DU145 cells after 4 days by propidium iodide staining-based fluorometric analysis; format: functional, cell-based; conditions: DU-145, 96 h
[15] = Cytotoxicity against human MEXF 276L cells after 4 days by propidium iodide staining-based fluorometric analysis; format: functional, cell-based; conditions: MEXF276L, 96 h
[16] = Cytotoxicity against human PXF 1752L cells after 4 days by propidium iodide staining-based fluorometric analysis; format: functional, cell-based; conditions: 96 h
[17] = target: Hepatocyte growth factor receptor (Homo sapiens) (UniProt P08581); experiment: Inhibition of MET using poly(Ala, Glu, Lys, Tyr) as substrate and [gamma33P]ATP at 1 uM after 60 mins by scintillation counting
[18] = target: T1, Epidermal growth factor receptor (Homo sapiens, UniProt P00533); experiment: Inhibition of EGFR using poly(Glu,Tyr)4:1 as substrate and [gamma33P]ATP at 1 uM after 60 mins by scintillation counting
[19] = Cytotoxicity against human LXFL 529L cells after 4 days by propidium iodide staining-based fluorometric analysis; format: functional, cell-based; conditions: 96 h
[20] = Cytotoxicity against human GXF251L cells after 4 days by propidium iodide staining-based fluorometric analysis; format: functional, cell-based; conditions: GXF 251L, 96 h
[21] = Cytotoxicity against human LXFA 289L cells after 4 days by propidium iodide staining-based fluorometric analysis; format: functional, cell-based; conditions: 96 h
OVCAR-3 = experiment: Cytotoxicity against human OVCAR3 cells after 4 days by propidium iodide staining-based fluorometric analysis; format: functional, cell-based; conditions: OVCAR-3, 96 h
LNCaP = experiment: Cytotoxicity against human LNCAP cells after 4 days by propidium iodide staining-based fluorometric analysis; format: functional, cell-based; conditions: 96 h
[22] = Cytotoxicity against human BXF T24 cells after 4 days by propidium iodide staining-based fluorometric analysis; format: functional, cell-based; conditions: T-24, 96 h
[23] = Cytotoxicity against human CXF 269L cells after 4 days by propidium iodide staining-based fluorometric analysis; format: functional, cell-based; conditions: 96 h
[24] = Cytotoxicity against human MDA231 cells after 4 days by propidium iodide staining-based fluorometric analysis; format: functional, cell-based; conditions: MDA-MB-231, 96 h
HCT-116 = experiment: Cytotoxicity against human HCT116 cells after 4 days by propidium iodide staining-based fluorometric analysis; format: functional, cell-based; conditions: HCT-116, 96 h
[25] = target: T1, Epidermal growth factor receptor; experiment: Inhibition of EGFR autophosphorylation in EGF-stimulated human A431 cells after 1 hr by immunoblotting; format: cell-based, A-431
CAL-27 = experiment: Cytotoxicity against human CAL27 cells after 4 days by propidium iodide staining-based fluorometric analysis; format: functional, cell-based; conditions: CAL-27, 96 h
PANC-1 = experiment: Cytotoxicity against human PANC1 cells after 4 days by propidium iodide staining-based fluorometric analysis; format: functional, cell-based; conditions: PANC-1, 96 h
NCI-H460 = experiment: Cytotoxicity against human H460 cells after 4 days by propidium iodide staining-based fluorometric analysis; format: functional, cell-based; conditions: NCI-H460, 96 h
[26] = Cytotoxicity against human OVXF 899L cells after 4 days by propidium iodide staining-based fluorometric analysis; format: functional, cell-based; conditions: 96 h
[27] = Cytotoxicity against human LXFL 1121L cells after 4 days by propidium iodide staining-based fluorometric analysis; format: functional, cell-based; conditions: 96 h
[28] = target: T1, Epidermal growth factor receptor; experiment: Inhibition of EGFR using poly(Glu,Tyr)4:1 as substrate and [gamma33P]ATP after 60 mins by scintillation counting
HT-29 = experiment: Cytotoxicity against human HT-29 cells after 4 days by propidium iodide staining-based fluorometric analysis; format: functional, cell-based; conditions: HT-29, 96 h
[29] = Cytotoxicity against human PAXF 1657L cells after 4 days by propidium iodide staining-based fluorometric analysis; format: functional, cell-based; conditions: 96 h
[30] = Cytotoxicity against human PC3M cells after 4 days by propidium iodide staining-based fluorometric analysis; format: functional, cell-based; conditions: PC-3M, 96 h
[31] = Cytotoxicity against human BXF 1352L cells after 4 days by propidium iodide staining-based fluorometric analysis; format: functional, cell-based; conditions: 96 h
[32] = Cytotoxicity against human LXFA 526L cells after 4 days by propidium iodide staining-based fluorometric analysis; format: functional, cell-based; conditions: 96 h
[33] = Cytotoxicity against human MEXF 462NL cells after 4 days by propidium iodide staining-based fluorometric analysis; format: functional, cell-based; conditions: 96 h
[34] = Cytotoxicity against human RXF 486L cells after 4 days by propidium iodide staining-based fluorometric analysis; format: functional, cell-based; conditions: 96 h
[35] = Cytotoxicity against human LIXF 575L cells after 4 days by propidium iodide staining-based fluorometric analysis; format: functional, cell-based; conditions: 96 h

T1 sequence (P00533 whole entry): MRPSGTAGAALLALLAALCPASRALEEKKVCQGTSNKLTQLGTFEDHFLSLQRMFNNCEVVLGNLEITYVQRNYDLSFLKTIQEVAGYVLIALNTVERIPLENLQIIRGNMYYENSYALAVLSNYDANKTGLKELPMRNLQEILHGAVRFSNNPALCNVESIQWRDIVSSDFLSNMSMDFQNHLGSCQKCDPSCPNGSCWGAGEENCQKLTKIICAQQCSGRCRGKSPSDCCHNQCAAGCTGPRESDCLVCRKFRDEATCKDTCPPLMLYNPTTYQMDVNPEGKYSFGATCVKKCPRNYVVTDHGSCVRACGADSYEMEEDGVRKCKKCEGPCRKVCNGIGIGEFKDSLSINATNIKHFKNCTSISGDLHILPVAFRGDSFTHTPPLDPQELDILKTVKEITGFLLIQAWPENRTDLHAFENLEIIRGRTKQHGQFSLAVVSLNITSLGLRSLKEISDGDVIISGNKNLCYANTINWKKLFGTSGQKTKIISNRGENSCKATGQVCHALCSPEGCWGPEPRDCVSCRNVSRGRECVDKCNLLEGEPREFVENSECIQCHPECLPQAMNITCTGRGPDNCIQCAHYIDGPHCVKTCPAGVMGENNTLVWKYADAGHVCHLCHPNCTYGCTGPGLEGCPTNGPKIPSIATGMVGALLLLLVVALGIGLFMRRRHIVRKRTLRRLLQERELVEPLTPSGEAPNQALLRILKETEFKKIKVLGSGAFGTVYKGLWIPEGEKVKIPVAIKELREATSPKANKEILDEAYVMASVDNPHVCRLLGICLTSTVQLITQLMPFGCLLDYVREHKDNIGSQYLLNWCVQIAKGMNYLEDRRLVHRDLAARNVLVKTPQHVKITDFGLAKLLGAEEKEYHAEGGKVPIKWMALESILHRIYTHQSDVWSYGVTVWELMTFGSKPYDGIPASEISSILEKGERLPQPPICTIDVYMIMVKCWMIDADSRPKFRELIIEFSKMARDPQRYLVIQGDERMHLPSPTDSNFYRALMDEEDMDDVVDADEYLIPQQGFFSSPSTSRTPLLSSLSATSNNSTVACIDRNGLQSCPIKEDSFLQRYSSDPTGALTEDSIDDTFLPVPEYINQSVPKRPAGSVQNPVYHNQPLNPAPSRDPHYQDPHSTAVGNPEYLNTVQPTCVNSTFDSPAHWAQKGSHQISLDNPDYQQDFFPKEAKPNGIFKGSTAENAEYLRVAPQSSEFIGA
Sequence of Hepatocyte growth factor receptor (Homo sapiens) (P08581 whole entry): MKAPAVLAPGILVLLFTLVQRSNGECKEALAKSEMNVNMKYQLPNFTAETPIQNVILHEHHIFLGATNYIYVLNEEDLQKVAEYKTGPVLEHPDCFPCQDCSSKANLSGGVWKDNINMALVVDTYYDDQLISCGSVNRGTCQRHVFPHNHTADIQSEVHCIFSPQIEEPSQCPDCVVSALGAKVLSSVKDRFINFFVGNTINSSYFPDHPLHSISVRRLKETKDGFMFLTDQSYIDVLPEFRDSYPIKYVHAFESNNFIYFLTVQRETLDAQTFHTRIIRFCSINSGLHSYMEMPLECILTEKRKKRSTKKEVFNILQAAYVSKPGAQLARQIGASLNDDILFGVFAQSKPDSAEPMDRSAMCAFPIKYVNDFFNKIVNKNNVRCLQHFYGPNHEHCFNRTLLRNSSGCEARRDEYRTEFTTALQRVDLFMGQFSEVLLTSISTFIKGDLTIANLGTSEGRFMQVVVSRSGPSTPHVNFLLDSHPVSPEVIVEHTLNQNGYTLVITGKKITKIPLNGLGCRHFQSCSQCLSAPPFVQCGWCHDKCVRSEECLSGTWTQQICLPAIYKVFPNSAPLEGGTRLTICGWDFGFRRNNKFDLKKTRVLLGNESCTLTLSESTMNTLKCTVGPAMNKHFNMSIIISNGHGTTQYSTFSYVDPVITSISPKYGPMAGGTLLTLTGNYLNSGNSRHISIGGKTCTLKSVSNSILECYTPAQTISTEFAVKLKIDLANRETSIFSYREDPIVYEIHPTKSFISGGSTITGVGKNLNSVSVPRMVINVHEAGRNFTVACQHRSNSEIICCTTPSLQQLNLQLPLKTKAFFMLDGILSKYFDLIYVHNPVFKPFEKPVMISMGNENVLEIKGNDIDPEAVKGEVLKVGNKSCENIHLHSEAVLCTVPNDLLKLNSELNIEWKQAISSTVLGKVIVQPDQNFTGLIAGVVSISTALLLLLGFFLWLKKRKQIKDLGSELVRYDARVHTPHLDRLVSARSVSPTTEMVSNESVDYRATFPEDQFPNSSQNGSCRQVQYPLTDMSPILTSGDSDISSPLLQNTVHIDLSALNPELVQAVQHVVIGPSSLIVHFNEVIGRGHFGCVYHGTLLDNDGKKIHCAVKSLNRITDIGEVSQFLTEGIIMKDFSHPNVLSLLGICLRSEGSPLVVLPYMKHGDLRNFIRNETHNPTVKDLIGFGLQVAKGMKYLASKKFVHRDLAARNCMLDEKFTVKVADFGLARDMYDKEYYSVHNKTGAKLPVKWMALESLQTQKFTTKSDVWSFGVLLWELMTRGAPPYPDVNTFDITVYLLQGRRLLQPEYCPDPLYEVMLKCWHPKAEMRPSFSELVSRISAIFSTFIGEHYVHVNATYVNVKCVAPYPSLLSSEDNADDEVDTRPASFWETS
Sequence of Vascular endothelial growth factor receptor 2 (Homo sapiens) (P35968 whole entry): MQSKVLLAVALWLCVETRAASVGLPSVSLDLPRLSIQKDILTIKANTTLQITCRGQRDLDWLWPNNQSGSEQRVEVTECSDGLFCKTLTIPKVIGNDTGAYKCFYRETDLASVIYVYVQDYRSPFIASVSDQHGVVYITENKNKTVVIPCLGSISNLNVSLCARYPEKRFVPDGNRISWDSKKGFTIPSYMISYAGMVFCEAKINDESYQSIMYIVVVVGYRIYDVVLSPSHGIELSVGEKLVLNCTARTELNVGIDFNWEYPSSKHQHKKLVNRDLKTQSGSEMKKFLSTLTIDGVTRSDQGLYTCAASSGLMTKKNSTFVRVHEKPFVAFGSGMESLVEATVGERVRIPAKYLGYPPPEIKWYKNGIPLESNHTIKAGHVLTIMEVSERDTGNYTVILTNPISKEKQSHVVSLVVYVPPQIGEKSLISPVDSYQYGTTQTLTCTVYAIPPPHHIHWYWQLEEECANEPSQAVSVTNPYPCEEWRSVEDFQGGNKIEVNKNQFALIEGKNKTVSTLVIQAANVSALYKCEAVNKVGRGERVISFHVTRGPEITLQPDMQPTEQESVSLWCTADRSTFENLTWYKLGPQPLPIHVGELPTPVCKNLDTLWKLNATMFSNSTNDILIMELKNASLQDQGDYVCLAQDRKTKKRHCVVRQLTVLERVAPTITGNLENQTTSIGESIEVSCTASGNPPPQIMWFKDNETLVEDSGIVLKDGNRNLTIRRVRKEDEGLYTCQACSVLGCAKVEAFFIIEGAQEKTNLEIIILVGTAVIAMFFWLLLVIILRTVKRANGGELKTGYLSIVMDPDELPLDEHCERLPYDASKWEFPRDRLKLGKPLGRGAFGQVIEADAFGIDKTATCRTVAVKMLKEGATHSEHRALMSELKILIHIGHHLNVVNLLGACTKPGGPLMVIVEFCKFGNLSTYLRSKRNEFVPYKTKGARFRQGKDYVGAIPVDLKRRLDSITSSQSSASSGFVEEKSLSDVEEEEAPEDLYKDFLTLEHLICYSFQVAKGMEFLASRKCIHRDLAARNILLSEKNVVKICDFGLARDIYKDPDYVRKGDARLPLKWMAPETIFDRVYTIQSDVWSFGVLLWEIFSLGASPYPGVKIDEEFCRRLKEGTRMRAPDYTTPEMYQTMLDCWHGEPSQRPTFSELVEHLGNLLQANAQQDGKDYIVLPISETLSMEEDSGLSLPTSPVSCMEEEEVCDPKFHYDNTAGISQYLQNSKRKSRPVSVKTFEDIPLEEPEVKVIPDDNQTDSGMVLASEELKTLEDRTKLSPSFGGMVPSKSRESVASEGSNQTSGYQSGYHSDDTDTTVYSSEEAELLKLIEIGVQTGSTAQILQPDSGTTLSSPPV
Sequence of Tyrosine-protein kinase ABL1 (Homo sapiens) (P00519 whole entry): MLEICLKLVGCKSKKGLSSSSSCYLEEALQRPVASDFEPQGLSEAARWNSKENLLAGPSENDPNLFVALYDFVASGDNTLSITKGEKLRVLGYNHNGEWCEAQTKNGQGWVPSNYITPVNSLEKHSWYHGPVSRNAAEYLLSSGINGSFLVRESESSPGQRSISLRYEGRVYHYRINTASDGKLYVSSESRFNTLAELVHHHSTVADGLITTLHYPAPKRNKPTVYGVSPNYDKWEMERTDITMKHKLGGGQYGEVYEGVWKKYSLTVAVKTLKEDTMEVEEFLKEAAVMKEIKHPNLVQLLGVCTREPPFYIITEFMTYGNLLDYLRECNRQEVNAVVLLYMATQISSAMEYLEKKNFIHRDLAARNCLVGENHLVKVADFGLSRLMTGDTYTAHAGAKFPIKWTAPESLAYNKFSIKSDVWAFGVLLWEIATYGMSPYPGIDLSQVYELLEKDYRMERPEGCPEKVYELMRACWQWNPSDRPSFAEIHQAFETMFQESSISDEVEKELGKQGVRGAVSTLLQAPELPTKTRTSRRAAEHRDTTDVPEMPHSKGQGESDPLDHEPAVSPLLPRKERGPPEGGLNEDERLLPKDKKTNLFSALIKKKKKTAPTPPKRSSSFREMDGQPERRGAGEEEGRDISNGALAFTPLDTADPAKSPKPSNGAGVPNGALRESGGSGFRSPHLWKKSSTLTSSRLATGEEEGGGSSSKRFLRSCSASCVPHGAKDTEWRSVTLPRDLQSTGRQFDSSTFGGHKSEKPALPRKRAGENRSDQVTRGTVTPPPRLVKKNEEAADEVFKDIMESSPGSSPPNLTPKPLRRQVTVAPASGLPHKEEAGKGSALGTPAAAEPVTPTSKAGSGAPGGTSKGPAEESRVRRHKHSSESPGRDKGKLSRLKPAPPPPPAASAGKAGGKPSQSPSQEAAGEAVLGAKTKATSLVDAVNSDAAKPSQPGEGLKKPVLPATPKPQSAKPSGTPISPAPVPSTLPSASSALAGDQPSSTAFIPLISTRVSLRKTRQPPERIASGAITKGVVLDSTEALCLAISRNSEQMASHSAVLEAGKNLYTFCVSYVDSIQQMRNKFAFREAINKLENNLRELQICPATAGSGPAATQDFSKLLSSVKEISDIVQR

Which IC50 [1] does the source give for `O=C(c1cc2ccccc2[nH]1)c1cc2c(Nc3cccc(Cl)c3)ncnc2s1` here?
The IC50 was 25.1 µM.

What about the IC50 (MCF7) of the same compound?
Its IC50 is 12.5 µM.

What about the IC50 [2] of the same compound?
Its IC50 is 20 µM.

What about the IC50 (SAOS-2) of the same compound?
Its IC50 is 19.3 µM.

And the IC50 [3]?
The IC50 was 31 µM.

And the IC50 [4]?
The IC50 was 26.4 µM.

And the IC50 [5]?
The IC50 was 20.1 µM.

What about the IC50 [6] of the same compound?
The IC50 was 1.8 µM.

What about the IC50 (TE-671) of the same compound?
The IC50 was 24.8 µM.

What about the IC50 [7] of the same compound?
Its IC50 is 6 µM.

And the IC50 [8]?
Its IC50 is 7.3 µM.

And the inhibition [9]?
Its inhibition is “inactive”.

What about the IC50 (RKO) of the same compound?
The IC50 was 18.1 µM.

And the IC50 [10]?
Its IC50 is 49.7 µM.

What about the inhibition [11] of the same compound?
Its inhibition is 20%.

What about the IC50 [12] of the same compound?
Its IC50 is 21.5 µM.

And the IC50 (MKN-45)?
The IC50 was 20.2 µM.

And the IC50 (CWR22R)?
The IC50 was 14 µM.

And the IC50 [13]?
Its IC50 is 8.6 µM.

What about the inhibition [14] of the same compound?
Its inhibition is 73%.

And the IC50 (DU-145)?
Its IC50 is 9.2 µM.

What about the IC50 [15] of the same compound?
The IC50 was 27.1 µM.

And the IC50 [16]?
Its IC50 is 30.7 µM.

And the inhibition [17]?
The inhibition was “inactive”.

And the inhibition [18]?
Its inhibition is 99%.

And the IC50 [19]?
Its IC50 is 7.6 µM.

What about the IC50 [20] of the same compound?
Its IC50 is 4.3 µM.

And the IC50 [21]?
Its IC50 is 4.7 µM.

What about the IC50 (OVCAR-3) of the same compound?
The IC50 was 15.3 µM.

What about the IC50 (LNCaP) of the same compound?
The IC50 was 11.3 µM.

And the IC50 [22]?
The IC50 was 23.7 µM.

What about the IC50 [23] of the same compound?
Its IC50 is 28.9 µM.

What about the IC50 [24] of the same compound?
Its IC50 is 23.4 µM.

And the IC50 (HCT-116)?
Its IC50 is 18.9 µM.

What about the IC50 [25] of the same compound?
The IC50 was 0.3 µM.

What about the IC50 (CAL-27) of the same compound?
Its IC50 is 3 µM.

And the IC50 (PANC-1)?
The IC50 was 14.8 µM.

And the IC50 (NCI-H460)?
The IC50 was 17.7 µM.

What about the IC50 [26] of the same compound?
The IC50 was 13.9 µM.

What about the IC50 [27] of the same compound?
The IC50 was 16 µM.

And the IC50 [28]?
Its IC50 is 0.0166 µM.

What about the IC50 (HT-29) of the same compound?
Its IC50 is 17.7 µM.

What about the IC50 [29] of the same compound?
The IC50 was 47.6 µM.

And the IC50 [30]?
Its IC50 is 14.1 µM.

What about the IC50 [31] of the same compound?
The IC50 was 15.9 µM.

What about the IC50 [32] of the same compound?
The IC50 was 13.6 µM.

And the IC50 [33]?
Its IC50 is 24 µM.

And the IC50 [34]?
The IC50 was 13.1 µM.

And the IC50 [35]?
The IC50 was 18.1 µM.

Which results are given for `O=C(c1cc2cc(O)ccc2[nH]1)c1cc2c(Nc3ccc(F)c(Cl)c3)ncnc2s1`?
IC50 [1]: 8.85 µM; IC50 (MCF7): 4.22 µM; IC50 [2]: 4.87 µM; IC50 (SAOS-2): 8.2 µM; IC50 [3]: 9.23 µM; IC50 [4]: 5.87 µM; IC50 [5]: 5.89 µM; IC50 [6]: 0.94 µM; IC50 (TE-671): 10.1 µM; IC50 [7]: 2.65 µM; IC50 [8]: 4.09 µM; inhibition [9]: inactive; IC50 (RKO): 6.01 µM; IC50 [10]: 9.59 µM; inhibition [11]: 10%; IC50 [12]: 6.34 µM; IC50 (MKN-45): 7.26 µM; IC50 (CWR22R): 5.61 µM; IC50 [13]: 3.45 µM; inhibition [14]: 87%; IC50 (DU-145): 2.96 µM; IC50 [15]: 6.28 µM; IC50 [16]: 8.19 µM; inhibition [17]: inactive; inhibition [18]: 98%; IC50 [19]: 4.87 µM; IC50 [20]: 4.09 µM; IC50 [21]: 3.25 µM; IC50 (OVCAR-3): 9.08 µM; IC50 (LNCaP): 3.01 µM; IC50 [22]: 9.56 µM; IC50 [23]: 7.58 µM; IC50 [24]: 7.65 µM; IC50 (HCT-116): 7.69 µM; IC50 [25]: 0.1 µM; IC50 (CAL-27): 1.28 µM; IC50 (PANC-1): 7.95 µM; IC50 (NCI-H460): 6 µM; IC50 [26]: 4.07 µM; IC50 [27]: 6.02 µM; IC50 [28]: 0.024 µM; IC50 (HT-29): 13.7 µM; IC50 [29]: 9.08 µM; IC50 [30]: 5.45 µM; IC50 [31]: 5.97 µM; IC50 [32]: 4.36 µM; IC50 [33]: 6.02 µM; IC50 [34]: 3.37 µM; IC50 [35]: 7.04 µM

— ChEMBL document CHEMBL1926681, “Novel inhibitors of epidermal growth factor receptor: (4-(Arylamino)-7H-pyrrolo[2,3-d]pyrimidin-6-yl)(1H-indol-2-yl)methanones and (1H-indol-2-yl)(4-(phenylamino)thieno[2,3-d]pyrimidin-6-yl)methanones” (Bioorg Med Chem, 2012)
